Measured values: patent publication US6875750B1, “Aziridine compounds and methods of making and using them” (Max-Planck-Gesellschaft zur Foerderung der Wissenschaften …, priority 1998, dated 2005)

Tests used:
[1] = target: T1, N6-adenine DNA methyltransferase M•TaqI (Thermus aquaticus, UniProt P14385); experiment: Enzyme reaction: M•TaqI-catalyzed coupling of cofactor with duplex oligodeoxynucleotide 3•4, followed by anion exchange chromatography; format: biochemical; conditions: duplex 3•4 10 μM, M•TaqI 10 μM, pH 6.0, 37°C
T1 construct: made in house
Procedure: The DNA methyltransferase M•TaqI free of cofactor was prepared as described before (B. Holz, S. Klimasauskas, S. Serva, E. Weinhold, Nucleic Acids Res. 1998, 26, 1076-1083). The enzyme-catalyzed reaction was carried out in a mixture (500 μl) of M•TaqI (5 nmol, 10 μM), duplex oligodeoxynucleotide 3.4 (5 nmol, 10 μM), compound 2 (500 nmol, 1 mM), Tris acetate (20 mM, pH 6,0), potassium acetate (50 mM), magnesium acetate (10 mM) and Triton X-100 (0.01%) at 37°C. The progress of the reaction was monitored by anion exchange chromatography. Aliquots (50 μl) of the reaction mixture were withdrawn after different incubation times, mixed with an urea solution (100 μl, 6 M) and injected onto an anion exchange column (Poros 10 HQ, 10 μm, 4.6×100 mm, PerSeptive Biosystems, Germany). Compounds were eluted with aqueous potassium chloride (0.5 M for 5 min, followed by a linear gradient to 1 M in 30 min, 4 ml/min) in Tris chloride buffer (10 mM, pH 7.6).
The enzyme-catalyzed reaction was carried out in a mixture (500 μl) of cofactor free M-Taql (5 nmol, 10 μM), duplex oligodeoxynucleotide 3•4 (5 nmol, 10 μM), compound 9 (10 nmol, 20 μM), Tris acetate (20 mM, pH 6.0), potassium acetate (50 mM), magnesium acetate (10 mM) and Triton X-100 (0,01%) at 37° C. The progress of the reaction was monitored by anion exchange chromatography (Poros 10 HQ, 10 μm, 4,6×10 mm, PerSeptive Biosystems, Germany). Compounds were eluted with aqueous potassium chloride (0.2 M for 5 min, followed by a linear gradient to 0.5 M in 5 min and to 1 M in 30 min) in Tris chloride buffer (10 mM, pH 7.0). Complete conversion to a new product (containing DNA and protein) with a retention time of 7.9 min was observed after 15 h. […] Then, a solution (4 μl) of proteinase K (31 mg/ml), Tris chloride (50 mM, pH 8.0) and calcium chloride (1 mM) was added, and the reaction mixture was incubated at 37° C. for 1 h. The proteolytic fragmentation was monitored by anion exchange chromatography as described above. […]

[2] = target: T2, C5-cytosine DNA methyltransferase M•HhaI (Haemophilus parahaemolyticus, UniProt P05102); experiment: Enzyme reaction: M•HhaI-catalyzed coupling of cofactor with duplex oligodeoxynucleotide 6•7, followed by anion exchange chromatography; format: biochemical, Haemophilus haemolyticus; conditions: duplex 6•7 10 μM, M•HhaI 10 μM, compound 2 1 mM, pH 7.4, 25°C
T2 construct: made in house
T2 sequence (P05102 1-327): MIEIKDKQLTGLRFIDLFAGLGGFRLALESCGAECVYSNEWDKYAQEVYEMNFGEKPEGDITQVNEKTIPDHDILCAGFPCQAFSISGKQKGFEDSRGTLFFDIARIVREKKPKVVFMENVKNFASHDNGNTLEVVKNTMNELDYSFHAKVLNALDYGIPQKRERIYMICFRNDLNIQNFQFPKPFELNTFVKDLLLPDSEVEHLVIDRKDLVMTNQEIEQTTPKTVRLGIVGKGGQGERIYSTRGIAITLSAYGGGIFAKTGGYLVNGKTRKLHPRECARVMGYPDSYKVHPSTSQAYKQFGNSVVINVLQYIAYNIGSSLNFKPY
Procedure: The DNA methyltransferase M•HhaI free of cofactor was prepared as described before (B. Holz, S. Klimasauskas, S. Serva, E. Weinhold, Nucleic Acids Res. 1998, 26, 1076-1083). The enzyme-catalyzed reaction was carried out in a mixture (500 μl) of M•HhaI (5 nmol, 10 μM), duplex oligodeoxynucleotide 6•7 (5 nmol, 10 μM), compound 2 (500 nmol, 1 mM), Tris chloride (10 mM, pH 7.4), sodium chloride (50 mM), EDTA (0,5 mM) and Triton X-100 (0.01%) at 25° C. The progress of the reaction was monitored by anion exchange chromatography. Aliquots (50 μl) of the reaction mixture were withdrawn after different incubation times, and injected onto an anion exchange column (Poros 10 HQ, 10 μm, 4.6×100 mm, PerSeptive Biosystems, Germany). Compounds were eluted with aqueous potassium chloride (0 M for 5 min, followed by a linear gradient to 0.5 M in 5 min and to 1 M in 30 min, 4 ml/min) in Tris chloride buffer (20 mM, pH. 7.6).

[3] = target: T2, C5-cytosine DNA methyltransferase M•HhaI; experiment: Fluorescent labeling of plasmid DNA (pUC19) using M•HhaI; format: biochemical, Haemophilus haemolyticus; conditions: M•HhaI 730 nM, pUC19 40 nM, compound 9 20 μM, pH 6.85, 37°C, 20 h
Procedure: The enzyme-catalyzed labeling reaction was carried out in a mixture (100 μl) of M-HhaI (730 nM), pUC19 DNA (40 nM, 17 recognition sites for M•HhaI), compound 9 (20 μM), Tris chloride (10 mM, pH 6.85), sodium chloride (50 mM), EDTA (0,5 mM) and P-mercaptoethanol (2 mM) at 37° C. A parallel control experiment was performed without M•HhaI. Aliquots of both incubations after 20 h reaction time were analyzed by anion exchange chromatography as described above (see example 2, 3.1). The obtained chromatograms are shown in FIG. 8 (A: UV detection at 260 nm; B: fluorescence detection).

[4] = target: T1, N6-adenine DNA methyltransferase M•TaqI; experiment: Fluorescent labeling of plasmid DNA (pUC19) using M•TaqI; format: biochemical; conditions: M•TaqI 133 nM, pUC19 28 nM, compound 9 20 μM
Procedure: The enzyme-catalyzed labeling reaction was carried out in a mixture (500 μl) of cofactor free M•TaqI (133 nM), pUC19 DNA (28 nM, 4 recognition sites for M•TaqI), compound 9 (20 μM), Tris acetate (20 mM, pH 6,0), potassium acetate (50 mM), magnesium, acetate (10 mM) and Triton X-100 (0,01%) at 65° C. The progress of the reaction was monitored by anion exchange chromatography (NUCLEOGEN DEAE 4000-7, 7 μm, 125×6,2 mm, Machery-Nagel, Düren, Germany). Compounds were eluted with aqueous potassium chloride (0.2 M for 5 min followed by a linear gradient to 1 M in 30 min) in Tris chloride buffer (10 mM, pH 7.0) containing acetonitrile (20%). The chromatograms of the anion exchange chromatography after different incubation times are shown in FIG. 6 (A: UV detection at 260 nm; B: fluorescence detection). The delay between the observed UV absorption and the fluorescence is due to a spatial separation of the UV detector and the fluorescence detector. The labeling reaction yielding fluorescent pUC19 was completed after 8 h.

T1 sequence (P14385 whole entry): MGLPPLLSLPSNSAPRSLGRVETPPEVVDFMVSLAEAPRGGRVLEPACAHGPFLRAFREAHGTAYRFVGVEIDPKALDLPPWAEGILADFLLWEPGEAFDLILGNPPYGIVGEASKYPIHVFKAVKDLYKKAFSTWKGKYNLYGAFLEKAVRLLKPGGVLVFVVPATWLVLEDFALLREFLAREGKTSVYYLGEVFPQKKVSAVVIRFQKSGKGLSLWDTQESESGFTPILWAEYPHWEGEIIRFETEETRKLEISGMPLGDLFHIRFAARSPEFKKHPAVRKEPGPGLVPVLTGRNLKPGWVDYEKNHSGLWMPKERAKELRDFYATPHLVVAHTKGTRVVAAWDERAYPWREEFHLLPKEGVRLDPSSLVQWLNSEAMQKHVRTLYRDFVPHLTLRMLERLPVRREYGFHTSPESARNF

Compound: Nc1ncnc2c1ncn2[C@@H]1O[C@H](CN2CC2)[C@@H](O)[C@H]1O [Compound 2, N-Adenosylaziridine]
- M•TaqI-catalyzed coupling of the cofactor with DNA ([1]; compound 2 1 mM): quantitative, sequence- and base-specific
- M•HhaI-catalyzed coupling of the cofactor to duplex oligodeoxynucleotide 6•7 [2]: quantitative

Compound: CN(C)c1cccc2c(S(=O)(=O)NCCCCNc3nc4c(N)ncnc4n3[C@@H]3O[C@H](CN4CC4)C(O)[C@@H]3O)cccc12 (stereo partly shown) [Compound 9, 8-Amino[1″-(N″-dansyl)-4″-aminobutyl]-5′-(1-aziridinyl)-5′-deoxy adenosine]
- cofactor function in M•HhaI-catalyzed fluorescent labeling of pUC19 [3]: function as a cofactor for M•HhaI
- fluorescence signal of pUC19 in anion exchange chromatography after labeling with M•TaqI ([4]; 65°C, different incubation times): increase of the fluorescence signal with the incubation time
- time to completion of the labeling reaction yielding fluorescent pUC19 ([4]; pH 6.0, 65°C): 8 h
- coupling reaction of the fluorescent cofactor with DNA catalyzed by M•TaqI ([1]; compound 9 20 μM): quantitative and base-specific
- time to complete conversion of duplex 3•4 to new product (containing DNA and protein) ([1]; compound 9 20 μM): 15 h
